The target of one test is LRRK2 wild type enzyme (Homo sapiens, UniProt Q5S007). In words: Biochemical Assay: LRRK2 TR-FRET (LanthaScreen) kinase assay with LRRKtide substrate. As to conditions: LRRK2 Inhibition, Table 8. Here is the method:
10 mM compound solution was prepared in DMSO. An 11-point, 3-fold dilution was performed, with highest concentration at 10 μM. A 10 mM compound DMSO solution was added to Labcyte LDV plate and the compound concentration of source plate was 10 mM. The 1st compound concentration of Inter plate(Labcyte 384 well PP plate) was 4.938×10^−1 mM which was prepared by transferring 1.5 μL of 10 mM compound from source plate to 28.9 μL DMSO. The 2nd compound concentration of Inter plate was 1.829×10^−2 mM which was prepared by transferring 60 nL of 10 mM compound from source plate to 32.7 μL DMSO. The 3rd compound concentration of Inter plate was 6.774×10^−4 mM which was prepared by transferring 2.5 nL of 10 mM compound from source plate to 36.9 μL DMSO. 100 nL of reference compound was dispensed in column 1 for low control wells and 100 nL of DMSO in column 24 for high control wells. Compounds were dispensed to column 2 to 23 of assay plate and backfilled with DMSO to a total volume of 100 nL.
A 2X LRRK2 enzyme solution (final concentration 3 nM) was prepared in assay buffer (Tris-HCl pH8.0:50 mM, MgCl2: 5 mM, EDTA: 1 mM, Brij-35:0.01%, 2 mM DTT). A 2× substrate solution was prepared: LRRK2 tide substrate (final concentration 400 nM) and ATP (final concentration 25 μM) in assay buffer. 5 μL 2× LRRK2 enzyme solution was dispensed to each well in assay plate by Multidrop. Assay plate was spun at 1,000 rpm for 1 min and incubated for 15 min at 23° C. 5 μL 2× ATP/LRRKtide solution was dispensed to each well in assay plate by Multidrop. Assay plate was spun at 1,000 rpm for 1 min and incubated for 120 min at 23° C.
(§1) A 2× detection solution was prepared: Tb-pERM (pLRRKtide) antibody (final concentration 0.25 nM) and EDTA (final concentration 10 mM) in TR-FRET dilution buffer. 10 μL 2× detection solution was dispensed to each well in assay plate to stop kinase reaction by Multidrop. Assay plate was spun at 1,000 rpm for 1 min and incubate for 30 min at 23° C. Assay plate was then read on Envision configured for LanthaScreen® TR-FRET. pS935 LRRK2 Cell Assay
(Time-resolved FRET reads energy transfer from a long-lived donor to a nearby acceptor.)

Test [1] deals with T1, wild type LRRK2 overexpressed in recombinant HEK-293T cells (Homo sapiens, UniProt Q5S007).
T1 construct: host or cells: HEK293T (transient transfection with pCMV-LRRK2 WT plasmid)
In words: pS935 LRRK2 Cell Assay (HTRF, phospho-LRRK2 Ser935). It is filed as cell-based. As to conditions: LRRK2 Inhibition, Table 8, 2 hours compound incubation. On the procedure:
as §1
The following protocol describes an in-vitro method for measuring phosphorylation at Ser935 on wild type LRRK2 overexpressed in recombinant HEK-293T cells. The method is based on HTRF technology, which combines Fluorescence Resonance Energy Transfer (FRET) with Time-Resolved measurement (TR). Phospho-LRRK2 (Ser935) is detected in a sandwich assay format using two different specific antibodies, one labelled with Eu3+-Cryptate (donor) and the second with d2(acceptor).When the fluorophores are in close proximity, excitation of the donor with a light source (flash lamp) stimulates FRET to the acceptor, which in turn fluoresces at a specific wavelength (665 nm). The fluorescence emission at 615 nm from the donor is also measured to allow ratiometric reduction of data. The specific signal is proportional to phospho-LRRK2 (Ser935).
Plasmid transient transfection: DMEM medium, FBS, DPBS, Trans-IT, OPTI-MEM reagents were allowed to warm to room temperature. HEK293T cells were cultured in DMEM +10% FBS complete medium in T150 flasks till around 80% confluency before transfection. Then cells were washed with 10 mL PBS and detached with 3 mL 0.25% typinsin. 30×10E6 HEK293T cells were seeded in DMEM +10% FBS complete medium to a 15 cm dish.
DNA, TransIT-LT1, OPTI-MEM complex were prepared: […] OPTI-MEM was added to a 15 mL cone tube, then […] plasmid was added to OPTI-MEM and mixed, followed by addition of 60 μL TransIT-LT1 to the plasmid OPTI-MEM mixture and mixing. The resulting mixture was incubated for 15 minutes.
The above plasmid, DNA and OPTI-MEM mixture was added dropwise to the 15 cm dish, ensuring the drops were evenly distributed. The culture dish was gently rocked back and forth and from left to right to evenly distribute the complex. The tranfected dish was incubated for 24 hours at 37° C., and 5% CO2.
Transfected HEK293T was collected in the 15 cm dish. Media was aspirated from tissue culture dish, and washed by dispensing 10 mL 1× DPBS into 15 cm dish. 1× DPBS was aspirated and 3 mL trypsin was dispensed to 15 cm dish. The dish was incubated with trypsin at room temperature for 3 min until the cells were detached. 10 mL of DMEM +10% FBS medium were added to 15 cm dish and triturated to ensure homogenous cell suspensions.
Homogenous cell suspensions were transferred to a 50 mL tube, and centrifuged for 5 minutes at 1,000 rmp/min. The supernatant was aspirated and resuspended with 20 mL complete medium. 1 mL of cell suspension was transferred for cell counting. The cell suspension was diluted to 2× 10E5 cells/ml. 50 μL cell suspensions were added to a 384-well plate. The plate was quick spun at 800 rpm for 1 minute, then incubate overnight at 37° C., 5% CO2.
Compound dispensing: compound was diluted (10 mM DMSO stock solution) and added to assay plate (top concentration: 10 μM, 3 fold serial dilution, 9 doses) with duplicates by Tecan liquid handler. The DMSO concentration of each well was normalized to 0.2%. Plates were quick spun at 1,000 rpm for 1 minute. Plates were incubated at 37° C., 5% CO2 for 2 hours.
1× lysis buffer solution supplemented with blocking reagent was prepared (e.g. 1 mL lysis buffer 4X+3 mL water+40 μL stock blocking reagent 100X). Antibodies working solution was prepared by diluting 40-fold d2 and Cryptate antibodies with detection buffer(e.g. 1520 μL detection buffer+40 μL d2-antibody stock solution+[…] Cryptate-antibody stock solution).
After 2 hours incubation, cell plates were taken out from the incubator. […]

For 17 compounds, IC50 results are on record in patent US20250270209A1 (INTERLINE THERAPEUTICS, INC., priority 2022, published 2025).

T1 sequence (Q5S007 whole entry): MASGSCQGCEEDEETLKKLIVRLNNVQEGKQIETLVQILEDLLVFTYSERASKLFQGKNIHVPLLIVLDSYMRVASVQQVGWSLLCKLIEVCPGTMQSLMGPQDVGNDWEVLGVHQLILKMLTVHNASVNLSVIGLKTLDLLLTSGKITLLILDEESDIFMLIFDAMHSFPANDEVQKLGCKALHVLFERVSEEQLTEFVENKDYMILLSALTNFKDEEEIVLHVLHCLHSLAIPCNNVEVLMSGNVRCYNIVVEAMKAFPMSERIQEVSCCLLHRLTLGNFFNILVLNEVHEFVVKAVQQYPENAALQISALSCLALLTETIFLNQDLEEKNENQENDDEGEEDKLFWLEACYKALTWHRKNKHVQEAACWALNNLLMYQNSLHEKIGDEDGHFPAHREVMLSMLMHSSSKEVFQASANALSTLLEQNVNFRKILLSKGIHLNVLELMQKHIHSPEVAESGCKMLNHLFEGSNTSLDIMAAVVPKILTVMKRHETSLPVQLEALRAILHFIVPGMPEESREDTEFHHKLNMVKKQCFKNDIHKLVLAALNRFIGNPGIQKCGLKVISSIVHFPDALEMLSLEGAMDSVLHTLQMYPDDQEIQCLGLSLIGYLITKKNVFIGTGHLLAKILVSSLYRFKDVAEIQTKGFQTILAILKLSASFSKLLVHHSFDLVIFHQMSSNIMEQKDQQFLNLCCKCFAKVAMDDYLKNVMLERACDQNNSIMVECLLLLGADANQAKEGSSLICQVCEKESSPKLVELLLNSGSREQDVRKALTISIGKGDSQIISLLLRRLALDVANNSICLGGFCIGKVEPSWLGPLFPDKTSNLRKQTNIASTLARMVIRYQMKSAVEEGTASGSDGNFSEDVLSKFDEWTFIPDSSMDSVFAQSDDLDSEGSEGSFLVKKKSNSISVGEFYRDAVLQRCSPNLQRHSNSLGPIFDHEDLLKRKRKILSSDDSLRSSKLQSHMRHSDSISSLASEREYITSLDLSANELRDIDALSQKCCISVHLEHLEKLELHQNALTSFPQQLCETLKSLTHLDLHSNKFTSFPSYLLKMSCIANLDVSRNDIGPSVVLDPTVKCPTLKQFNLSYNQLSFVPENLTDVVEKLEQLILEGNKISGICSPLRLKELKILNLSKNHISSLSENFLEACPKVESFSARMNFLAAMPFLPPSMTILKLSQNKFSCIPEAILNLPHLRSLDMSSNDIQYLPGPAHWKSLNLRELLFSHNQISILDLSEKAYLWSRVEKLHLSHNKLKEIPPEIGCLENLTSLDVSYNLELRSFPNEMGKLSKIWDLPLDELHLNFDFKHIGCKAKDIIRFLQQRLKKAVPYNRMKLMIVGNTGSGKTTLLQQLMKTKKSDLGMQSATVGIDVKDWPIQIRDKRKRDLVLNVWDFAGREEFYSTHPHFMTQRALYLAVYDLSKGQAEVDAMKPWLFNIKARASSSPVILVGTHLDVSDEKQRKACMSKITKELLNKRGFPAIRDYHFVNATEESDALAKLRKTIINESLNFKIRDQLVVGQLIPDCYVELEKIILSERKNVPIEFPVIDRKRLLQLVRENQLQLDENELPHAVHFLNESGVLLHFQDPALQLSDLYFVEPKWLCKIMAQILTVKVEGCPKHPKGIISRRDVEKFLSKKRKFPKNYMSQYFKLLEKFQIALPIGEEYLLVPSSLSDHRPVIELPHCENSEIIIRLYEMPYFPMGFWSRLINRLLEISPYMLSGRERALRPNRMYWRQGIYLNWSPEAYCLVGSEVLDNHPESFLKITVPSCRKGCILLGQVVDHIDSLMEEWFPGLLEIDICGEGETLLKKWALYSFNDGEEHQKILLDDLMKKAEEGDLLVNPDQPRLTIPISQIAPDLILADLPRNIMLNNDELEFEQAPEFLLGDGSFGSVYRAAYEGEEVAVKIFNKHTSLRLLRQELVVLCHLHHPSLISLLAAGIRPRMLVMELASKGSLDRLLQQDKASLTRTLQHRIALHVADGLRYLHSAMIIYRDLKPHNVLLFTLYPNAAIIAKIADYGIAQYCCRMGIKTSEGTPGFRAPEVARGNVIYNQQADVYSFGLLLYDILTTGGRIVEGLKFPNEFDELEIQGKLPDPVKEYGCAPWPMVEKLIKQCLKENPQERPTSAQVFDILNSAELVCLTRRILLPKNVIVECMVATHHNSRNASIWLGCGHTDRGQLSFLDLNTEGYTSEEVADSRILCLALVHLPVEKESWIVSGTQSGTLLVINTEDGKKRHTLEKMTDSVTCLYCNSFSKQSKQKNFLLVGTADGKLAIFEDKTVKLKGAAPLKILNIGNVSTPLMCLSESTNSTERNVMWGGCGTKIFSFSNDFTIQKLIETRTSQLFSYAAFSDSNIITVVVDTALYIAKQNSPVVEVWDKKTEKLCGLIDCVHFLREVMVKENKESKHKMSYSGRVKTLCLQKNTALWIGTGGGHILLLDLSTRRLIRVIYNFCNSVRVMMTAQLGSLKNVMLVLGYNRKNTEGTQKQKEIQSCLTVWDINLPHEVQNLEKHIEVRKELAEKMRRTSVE
Sequence of LRRK2 wild type enzyme (Q5S007 whole entry): as above

For the compound `C[C@@H]1C[C@H](n2c(CC(=O)NCc3cccc(F)n3)nc3cnc4ccc(C#N)cc4c32)CCO1` [Compound 146, 2-{8-cyano-1-[(2R,4R)-2-methyloxan-4-yl]-1H-imidazo[4,5-c]quinolin-2-yl}-N-[(6-fluoropyridin-2-yl)methyl]acetamide], the figures for the IC50 (at LRRK2 wild type enzyme; in test [1]) were 0.313 nM and 4.79 nM, respectively.
In the same order, the values of `C[C@@H]1C[C@H](n2c(CC(=O)Nc3cccnc3CO)nc3cnc4ccc(C#N)cc4c32)CCO1` [Compound 283, N-[2-(hydroxymethyl)-3-pyridyl]{3-[(2R,4R)-2-methyltetrahydro-2H-pyran-4-yl]-12-cyano-3,5,8-triazatricyclo[7.4.0.0^2,6]trideca-1,4,6,8,10,12-hexaen-4-yl}acetamide] are 0.572 nM and 27.3 nM.
In the same order, the values of `C[C@@H]1C[C@H](n2c(CC(=O)NC3COC3)nc3cnc4ccc(Cl)cc4c32)CCO1` [Compound 141, 2-{8-chloro-1-[(2R,4R)-2-methyloxan-4-yl]-1H-imidazo[4,5-c]quinolin-2-yl}-N-(oxetan-3-yl)acetamide] are 0.53 nM and 18.7 nM.
In the case of `C[C@@H]1C[C@H](n2c(CC(=O)Nc3cnc(C(F)F)nc3)nc3cnc4ccc(C#N)cc4c32)CCO1` [Compound 254, N-[2-(difluoromethyl)-5-pyrimidinyl]{3-[(2R,4R)-2-methyltetrahydro-2H-pyran-4-yl]-12-cyano-3,5,8-triazatricyclo[7.4.0.0^2,6]trideca-1(9),2(6),4,7,10,12-hexaen-4-yl}acetamide], the IC50 was 0.546 nM at LRRK2 wild type enzyme and 27.3 nM in test [1].
Taken in the same sequence, the figures for `C[C@@H]1C[C@H](n2c(CC(=O)NCc3ccn(C)n3)nc3cnc4ccc(C#N)cc4c32)CCO1` [Compound 157, 2-{8-cyano-1-[(2R,4R)-2-methyloxan-4-yl]-1H-imidazo[4,5-c]quinolin-2-yl}-N-[(1-methyl-1H-pyrazol-3-yl)methyl]acetamide] were 0.505 nM and 25.7 nM.
Taken in the same sequence, the figures for `Cc1ccc2ncc3nc(CC(=O)NC4CC4)n([C@@H]4CCO[C@H](C)C4)c3c2c1` [Compound 191, N-cyclopropyl-2-{8-methyl-1-[(2R,4R)-2-methyloxan-4-yl]-1H-imidazo[4,5-c]quinolin-2-yl}acetamide] were 0.961 nM and 65.6 nM.
Consider `C[C@@H]1C[C@H](n2c(CC(=O)Nc3cccnn3)nc3cnc4ccc(C#N)cc4c32)CCO1` [Compound 168, 2-{8-cyano-1-[(2R,4R)-2-methyloxan-4-yl]-1H-imidazo[4,5-c]quinolin-2-yl}-N-(pyridazin-3-yl)acetamide], for which the IC50 is 0.375 nM on LRRK2 wild type enzyme and 8.76 nM in test [1].
As to `C[C@@H]1C[C@H](n2c(CNC(=O)C3CC3)nc3cnc4ccc(C#N)cc4c32)CCO1` [Compound 17, N-({8-cyano-1-[(2R,4R)-2-methyloxan-4-yl]-1H-imidazo[4,5-c]quinolin-2-yl}methyl)cyclopropanecarboxamide], the values for the IC50 (on LRRK2 wild type enzyme; in test [1]) were 6.61 nM and 477 nM, respectively.
In turn, `C[C@@H]1C[C@H](n2c([C@@H]3CCN(C(=O)c4cccnn4)C3)nc3cnc4ccc(C#N)cc4c32)CCO1` [Compound 129, 1-[(2R,4R)-2-methyloxan-4-yl]-2-[(3R)-1-(pyridazine-3-carbonyl)pyrrolidin-3-yl]-1H-imidazo[4,5-c]quinoline-8-carbonitrile] gave an IC50 against LRRK2 wild type enzyme of 2.47 nM.
Still for that read-out and setting: the figure for `Cn1cc(-n2c(CC(=O)NCC3CC3)nc3cnc4ccc(C#N)cc4c32)ccc1=O` [Compound 92, 2-[8-cyano-1-(1-methyl-6-oxo-1,6-dihydropyridin-3-yl)-1H-imidazo[4,5-c]quinolin-2-yl]-N-(cyclopropylmethyl)acetamide] is above 1000 nM; for `C[C@@H]1C[C@H](n2c([C@@H]3CCN(S(=O)(=O)c4cnn(C)c4)C3)nc3cnc4ccc(C#N)cc4c32)CCO1` [Compound 128, 2-[(3R)-1-[(1-methyl-1H-pyrazol-4-yl)sulfonyl]pyrrolidin-3-yl]-1-[(2R,4R)-2-methyloxan-4-yl]-1H-imidazo[4,5-c]quinoline-8-carbonitrile] it is 10 nM.
On to `C[C@@H]1C[C@H](n2c(CN3CCC(C(=O)O)CC3)nc3cnc4ccc(C#N)cc4c32)CCO1` [Compound 76, 1-({8-cyano-1-[(2R,4R)-2-methyloxan-4-yl]-1H-imidazo[4,5-c]quinolin-2-yl}methyl)piperidine-4-carboxylic acid], for which half-maximal inhibition at LRRK2 wild type enzyme (IC50) required 109 nM.
Still for that read-out and setting: to `Cc1cc(-n2c(CC(=O)NCC3CC3)nc3cnc4ccc(C#N)cc4c32)ccn1` [Compound 138, 2-[8-cyano-1-(2-methylpyridin-4-yl)-1H-imidazo[4,5-c]quinolin-2-yl]-N-(cyclopropylmethyl)acetamide] belongs above 1000 nM.
Same read-out and setting: the figure for `C[C@@H]1C[C@H](n2c(CC(=O)NCC3CC3)nc3cnc4ccc(C(=O)N(C)C)cc4c32)CCO1` [Compound 144, 2-{[(cyclopropylmethyl)carbamoyl]methyl}-N,N-dimethyl-1-[(2R,4R)-2-methyloxan-4-yl]-1H-imidazo[4,5-c]quinoline-8-carboxamide] is above 1000 nM; for `C[C@@H]1C[C@H](n2c([C@@H]3CCN(C(=O)c4cnn(C)c4)C3)nc3cnc4ccc(C#N)cc4c32)CCO1` [Compound 130, 2-[(3R)-1-(1-methyl-1H-pyrazole-4-carbonyl)pyrrolidin-3-yl]-1-[(2R,4R)-2-methyloxan-4-yl]-1H-imidazo[4,5-c]quinoline-8-carbonitrile] it is 6.71 nM; for `C[C@@H]1C[C@H](n2c(C3CC(=O)N(Cc4cccnc4)C3)nc3cnc4ccc(C#N)cc4c32)CCO1` (single isomer, unassigned) [Compound 31, 1-[(2R,4R)-2-methyloxan-4-yl]-2-[(3R*)-5-oxo-1-[(pyridin-3-yl)methyl]pyrrolidin-3-yl]-1H-imidazo[4,5-c]quinoline-8-carbonitrile] it is 26.4 nM.
Still for that read-out and setting: the figure for `Cn1cc(-n2c(C3CC(=O)N(CC4CC4)C3)nc3cnc4ccc(C#N)cc4c32)ccc1=O` (stereo not shown) [Compound 137, 2-[1-(cyclopropylmethyl)-5-oxopyrrolidin-3-yl]-1-(1-methyl-6-oxo-1,6-dihydropyridin-3-yl)-1H-imidazo[4,5-c]quinoline-8-carbonitrile] is above 1000 nM.

A word on the IC50: it is the concentration at which inhibition is half-maximal.
